The target in assay [1] is T1, Human CD73 (amino acid residues 27-549) (Homo sapiens, UniProt P21589).
T1 construct: Human CD73 (amino acid residues 27-549); His tag (N); made in house; host or cells: E. coli
T1 sequence (P21589 27-549): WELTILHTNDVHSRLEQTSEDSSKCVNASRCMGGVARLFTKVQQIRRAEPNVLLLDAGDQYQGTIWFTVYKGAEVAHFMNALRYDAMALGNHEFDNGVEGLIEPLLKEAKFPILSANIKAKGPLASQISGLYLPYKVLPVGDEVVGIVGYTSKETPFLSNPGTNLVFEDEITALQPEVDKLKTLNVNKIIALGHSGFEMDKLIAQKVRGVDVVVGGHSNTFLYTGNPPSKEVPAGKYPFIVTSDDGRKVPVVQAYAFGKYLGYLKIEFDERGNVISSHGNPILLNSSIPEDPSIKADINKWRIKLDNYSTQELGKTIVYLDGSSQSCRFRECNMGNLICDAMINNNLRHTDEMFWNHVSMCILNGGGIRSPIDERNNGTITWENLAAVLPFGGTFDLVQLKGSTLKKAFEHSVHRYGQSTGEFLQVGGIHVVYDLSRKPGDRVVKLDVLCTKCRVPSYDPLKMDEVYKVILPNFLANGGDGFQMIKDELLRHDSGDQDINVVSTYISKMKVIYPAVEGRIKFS
The experiment in a line: CD73 enzymatic assay (luciferase-based indirect assay, CellTiter-Glo). In kind it is biochemical. The settings on record: 0.4 nM CD73, 150 μM AMP, 1 hour at room temperature. Summed up: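 Luciferase-coupled readout: AMP left after CD73 turnover suppresses CellTiter-Glo signal (1 μM ATP final, 30 min RT). Reaction beforehand: 150 μM AMP, 0.4 nM E. coli-made His-tagged CD73 residues 27-549, test compound, HEPES pH 7.4 with Tween-20, 1 h RT. % inhibition fitted nonlinearly for IC50.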
On the technique in general: In ATP-based viability assays light output follows the ATP content of the culture.

A further assay has as its target T2, human CD73 (Homo sapiens, UniProt P21589).
T2 construct: expressed in transfected cells
T2 sequence (P21589 27-549): T1 sequence (P21589 27-549)
The experiment in a line: Inhibitor activity against CD73 in cell based assay (CD73 expressing CHO-K1 cells). The settings on record: CHO-K1 cells expressing human CD73, 150 μM AMP, 4 hours of incubation; read-out: CHO-K1 CELL_VARIANT: CD73 IC50. The procedure, abridged:
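AMP (150 μM) was added alongside 8 titrated compound doses (maximum 10 μM, 1:3 steps) to CHO-K1 cells stably expressing human CD73. After 4 h, supernatant AMP was measured indirectly with CellTiter-Glo 2.0 plus 1 μM ATP (30 min, RT). % inhibition versus high and low controls was fitted nonlinearly for IC50.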

Molecules are shown by their SMILES. pIC50: −log10 of the molar value.

With `Cc1nn(C)c(C)c1-c1cc(F)nc(O[C@H]2CN(c3cnn(CCO)c(=O)c3Cl)C[C@@H]2F)c1` [P-0190, 4-chloro-5-((3S,4S)-3-fluoro-4-((6-fluoro-4-(1,3,5-trimethyl-1H-pyrazol-4-yl)pyridin-2-yl)oxy)pyrrolidin-1-yl)-2-(2-hydroxyethyl)pyridazin-3(2H)-one], the pIC50 (in assay [1]; at human CD73) was 5.00 to 9.00 each time.

Turning to `Cc1nn(C)c(C)c1-c1cc(F)nc(O[C@H]2CN(c3cn[nH]c(=O)c3Cl)C[C@@H]2F)c1` [P-0191, 4-chloro-5-((3S,4S)-3-fluoro-4-((6-fluoro-4-(1,3,5-trimethyl-1H-pyrazol-4-yl)pyridin-2-yl)oxy)pyrrolidin-1-yl)pyridazin-3(2H)-one], the pIC50 (in assay [1]; at human CD73) was 5.00 to 9.00 in each case.

Consider `Cc1nn(CCO)c(C)c1-c1cc(F)nc(O[C@@H]2CCN(c3cn[nH]c(=O)c3Cl)C2)c1` [P-0192, (R)-4-chloro-5-(3-((6-fluoro-4-(1-(2-hydroxyethyl)-3,5-dimethyl-1H-pyrazol-4-yl)pyridin-2-yl)oxy)pyrrolidin-1-yl)pyridazin-3(2H)-one], for which the negative logarithm of the IC50 (pIC50) (in assay [1]; on human CD73) was 5.00 to 9.00 in each case.

Consider `Cc1n[nH]c(C)c1-c1cc(F)nc(O[C@@H]2CCN(c3cn[nH]c(=O)c3Cl)C2)c1` [P-0193, (R)-4-chloro-5-(3-((4-(3,5-dimethyl-1H-pyrazol-4-yl)-6-fluoropyridin-2-yl)oxy)pyrrolidin-1-yl)pyridazin-3(2H)-one], for which the pIC50 (in assay [1]; on human CD73) was 5.00 to 9.00 in each case.

For the compound `Cc1c(-c2cc(F)nc(O[C@@H]3CCN(c4cn[nH]c(=O)c4Cl)C3)c2)cnn1C` [P-0194, (R)-4-chloro-5-(3-((4-(1,5-dimethyl-1H-pyrazol-4-yl)-6-fluoropyridin-2-yl)oxy)pyrrolidin-1-yl)pyridazin-3(2H)-one], the pIC50 (in assay [1]; on human CD73) was 5.00 to 9.00 each time.

With `Cc1noc(C)c1-c1cc(F)nc(O[C@@H]2CCN(c3cn[nH]c(=O)c3Cl)C2)c1` [P-0195, (R)-4-chloro-5-(3-((4-(3,5-dimethylisoxazol-4-yl)-6-fluoropyridin-2-yl)oxy)pyrrolidin-1-yl)pyridazin-3(2H)-one], the pIC50 (in assay [1]; at human CD73) was 5.00 to 9.00 in each case.

As for `Cc1c(-c2cccc(O[C@@H]3CCN(c4cn[nH]c(=O)c4Cl)C3)c2)cnn1C` [P-0196, (R)-4-chloro-5-(3-(3-(1,5-dimethyl-1H-pyrazol-4-yl)phenoxy)pyrrolidin-1-yl)pyridazin-3(2H)-one], the pIC50 (in assay [1]; at human CD73) was 5.00 to 9.00 each time.

In the case of `Cc1nn(C)cc1-c1cccc(O[C@@H]2CCN(c3cn[nH]c(=O)c3Cl)C2)c1` [P-0197, (R)-4-chloro-5-(3-(3-(1,3-dimethyl-1H-pyrazol-4-yl)phenoxy)pyrrolidin-1-yl)pyridazin-3(2H)-one], the negative-log IC50 (pIC50) (in assay [1]; on human CD73) was 5.00 to 9.00 in each case.

In the case of `Cc1nn(C)c(C)c1-c1cccc(O[C@@H]2CCN(c3cn[nH]c(=O)c3Cl)C2)c1` [P-0198, (R)-4-chloro-5-(3-(3-(1,3,5-trimethyl-1H-pyrazol-4-yl)phenoxy)pyrrolidin-1-yl)pyridazin-3(2H)-one], the pIC50 (in assay [1]; at human CD73) was 5.00 to 9.00 throughout.

In the case of `Cc1nn(C)c(C)c1-c1cc(F)nc(O[C@@H]2CCN(c3cnn(CCO)c(=O)c3Cl)C2)c1` [P-0199, (R)-4-chloro-5 (3-((6-fluoro-4-(1,3,5-trimethyl-1H-pyrazol-4-yl)pyridin-2-yl)oxy)pyrrolidin-1-yl)-2-(2-hydroxyethyl)pyridazin-3(2H)-one], the negative logarithm of the IC50 (pIC50) (in assay [1]; at human CD73) was 5.00 to 9.00 throughout.

In the case of `Cc1nn(C)c(C)c1-c1cc(F)nc(O[C@@H]2CCN(c3cn[nH]c(=O)c3Cl)C2)c1` [P-0200, (R)-4-chloro-5-(3-((6-fluoro-4-(1,3,5-trimethyl-1H-pyrazol-4-yl)pyridin-2-yl)oxy)pyrrolidin-1-yl)pyridazin-3(2H)-one], the pIC50 (in assay [1]; at human CD73) was 5.00 to 9.00 in each case.

For the compound `Cc1noc(C)c1-c1ccnc(O[C@@H]2CCN(c3cn[nH]c(=O)c3Cl)C2)c1` [P-0201, (R)-4-chloro-5-(3-((4-(3,5-dimethylisoxazol-4-yl)pyridin-2-yl)oxy)pyrrolidin-1-yl)pyridazin-3(2H)-one], the pIC50 (in assay [1]; on human CD73) was 5.00 to 9.00 each time.

As for `CCNS(=O)(=O)c1ccc(-c2ccnc(O[C@@H]3CCN(c4cn[nH]c(=O)c4Cl)C3)c2)c(Cl)c1` [P-0202, (R)-3-chloro-4-(2-((1-(5-chloro-6-oxo-1,6-dihydropyridazin-4-yl)pyrrolidin-3-yl)oxy)pyridin-4-yl)-N-ethylbenzenesulfonamide], the negative logarithm of the IC50 (pIC50) (in assay [1]; on human CD73) was 5.00 to 9.00 in each case.

In the case of `Cc1nn(C)c(C)c1-c1ccnc(O[C@@H]2CCN(c3cn[nH]c(=O)c3Cl)C2)c1` [P-0203, (R)-4-chloro-5-(3-((4-(1,3,5-trimethyl-1H-pyrazol-4-yl)pyridin-2-yl)oxy)pyrrolidin-1-yl)pyridazin-3(2H)-one], the pIC50 (in assay [1]; at human CD73) was 5.00 to 9.00 in each case.

As for `CCCS(=O)(=O)Nc1ccc(-c2ccnc(O[C@@H]3CCN(c4cn[nH]c(=O)c4Cl)C3)c2)c(F)c1` [P-0204, (R)-N-(4-(2-((1-(5-chloro-6-oxo-1,6-dihydropyridazin-4-yl)pyrrolidin-3-yl)oxy)pyridin-4-yl)-3-fluorophenyl)propane-1-sulfonamide], the pIC50 (in assay [1]; at human CD73) was 5.00 to 9.00 throughout.

Turning to `CC(C)C(=O)Nc1ccc(-c2ccnc(O[C@@H]3CCN(c4cn[nH]c(=O)c4Cl)C3)c2)c(F)c1` [P-0205, (R)-N-(4-(2-((1-(5-chloro-6-oxo-1,6-dihydropyridazin-4-yl)pyrrolidin-3-yl)oxy)pyridin-4-yl)-3-fluorophenyl)isobutyramide], the pIC50 (in assay [1]; on human CD73) was 5.00 to 9.00 throughout.

Take `O=C(Nc1ccc(-c2ccnc(O[C@@H]3CCN(c4cn[nH]c(=O)c4Cl)C3)c2)c(F)c1)C1CCCC1` [P-0206, (R)-N-(4-(2-((1-(5-chloro-6-oxo-1,6-dihydropyridazin-4-yl)pyrrolidin-3-yl)oxy)pyridin-4-yl)-3-fluorophenyl)cyclopentane-carboxamide]: the negative-log IC50 (pIC50) (in assay [1]; on human CD73) was 5.00 to 9.00 each time.

As for `O=c1[nH]ncc(N2CC[C@@H](Oc3cc(-c4c(F)cc(S(=O)(=O)NC5CC5)cc4F)ccn3)C2)c1Cl` [P-0207, (R)-4-(2-((1-(5-chloro-6-oxo-1,6-dihydropyridazin-4-yl)pyrrolidin-3-yl)oxy)pyridin-4-yl)-N-cyclopropyl-3,5-difluorobenzenesulfonamide], the negative-log IC50 (pIC50) (in assay [1]; at human CD73) was 5.00 to 9.00 in each case.

For `CCCNS(=O)(=O)c1cc(F)c(-c2ccnc(O[C@@H]3CCN(c4cn[nH]c(=O)c4Cl)C3)c2)c(F)c1` [P-0208, (R)-4-(2-((1-(5-chloro-6-oxo-1,6-dihydropyridazin-4-yl)pyrrolidin-3-yl)oxy)pyridin-4-yl)-3,5-difluoro-N-propylbenzenesulfonamide], the pIC50 (in assay [1]; at human CD73) was 5.00 to 9.00 each time.

For the compound `Cc1c(-c2ccnc(O[C@@H]3CCN(c4cn[nH]c(=O)c4Cl)C3)c2)cnn1C` [P-0209, (R)-4-chloro-5-(3-((4-(1,5-dimethyl-1H-pyrazol-4-yl)pyridin-2-yl)oxy)pyrrolidin-1-yl)pyridazin-3(2H)-one], the negative-log IC50 (pIC50) (in assay [1]; on human CD73) was 5.00 to 9.00 throughout.

For the origin of these results see patent US12202818B2, “Compounds and methods for CD73 modulation and indications therefor” (Opna Bio SA, priority 2020, dated 2025).
